Experimental data reported in paper PMC8532448, “Drug target inference by mining transcriptional data using a novel graph convolutional network framework” (Protein & Cell, 2021).

Target: Cyclophilin A (CYPA, PPIA) (Homo sapiens, UniProt P62937)
Experiment: SPR with purified CYPA; also protein thermal shift (destabilization) and chymotrypsin-coupled PPIase inhibition
Format: binding

Cyclophilin A (CYPA, PPIA), sequence (P62937 whole entry): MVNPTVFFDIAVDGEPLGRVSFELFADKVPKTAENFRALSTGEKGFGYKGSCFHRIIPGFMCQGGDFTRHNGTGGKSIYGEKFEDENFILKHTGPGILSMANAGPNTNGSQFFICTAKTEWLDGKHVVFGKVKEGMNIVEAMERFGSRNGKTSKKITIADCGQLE

`Cc1c(O)cccc1C(=O)N[C@@H](CSc1ccccc1)[C@H](O)CN1C[C@H]2CCCC[C@H]2C[C@H]1C(=O)NC(C)(C)C` [NFV, Nelfinavir] showed a Kd of 940 nM.
